In article PMC5104426, “Screening a Phage Display Library for Two Novel OmpU-Binding Peptides with Adhesion Antagonistic Activity against Vibrio mimicus” (PLoS ONE, 2016):

Tested on: rOmpU fusion protein
Test: Solid phase non-competitive ELISA (Beatty method), affinity constant
Assay type: binding, Vibrio mimicus
Conditions: for affinity constant: peptide coated 2.5-40 μg/mL, rOmpU 0.2-12.8 μg/mL, modified Beatty formula, triplicate, mean ± SD, SD; for AAP concentration at 50% OD492nm: from fitted curve equation
Description: To determine the binding affinity of interactions between adhesion antagonistic peptide and rOmpU fusion protein, solid phase non-competitive ELISA method (also known as the Beatty method) was used to measure the affinity constant of adhesion antagonistic peptide. Briefly, adhesion antagonistic peptides were diluted to 40 μg/mL, 20 μg/mL, 10 μg/mL, 5 μg/mL and 2.5 μg/mL, respectively, and laterally coated onto plate wells (100 μL/well) at 4°C overnight. Next day, each well was blocked with 5% BSA at 37°C for 2 h, and then washed 6 times with TBST. Subsequently, rOmpU fusion protein were diluted to 12.8 μg/mL, 3.2 μg/mL, 0.8 μg/mL and 0.2 μg/mL, respectively, and longitudinally added to coated wells (100 μL/well), and the plates were incubated for 2 h at 37°C. After thorough washing, rabbit anti-rOmpU protein antibody, HRP labeled goat anti-rabbit IgG and substrate solution was added in turn, each step was preceded by 6 washes in TBST. OD492 nm values were finally determined. With OD492nm values as the ordinate and adhesion antagonistic peptide concentration as the abscissa, the binding reaction curves between adhesion antagonistic peptide and rOmpU fusion protein at different concentrations were plotted. MATLAB version 7.0 was used to fitting the binding response curve, and to derive the curve equation. From the equation, the corresponding adhesion antagonistic peptide concentration at 50% OD492nm value in the curve was obtained. The affinity constant K was calculated using a modified version of the Beatty formula [affinity constant (K) = (n—1) / 2 (nAb'total- Abtotal)] [11]. Ab'total and Abtotal in the formula represent respectively the corresponding adhesion antagonistic peptide concentration at 50% OD492nm value in the binding response curve when the concentration of rOmpU protein was P' and P; n represents P/P'. This assay was performed in triplicate.

Row | Sequence | affinity constant | AAP concentration at 50% OD492nm (rOmpU concentration 0.2 μg/mL) [µg/mL] | AAP concentration at 50% OD492nm (rOmpU concentration 0.8 μg/mL) [µg/mL] | AAP concentration at 50% OD492nm (rOmpU concentration 3.2 μg/mL) [µg/mL] | AAP concentration at 50% OD492nm (rOmpU concentration 12.8 μg/mL) [µg/mL]
1 | SCTSPHCFMWLP [P2, adhesion antagonistic peptide] | (1.24 ± 0.56) × 10^9 L/mol | 0.70 | 0.57 | 0.56 | 0.55
2 | TWTCSDVICTAR [P1, adhesion antagonistic peptide] | (6.17 ± 0.19) × 10^8 L/mol | 1.12 | 1.05 | 0.98 | 0.86
